Our source for the viability and IC50 values is ChEMBL document CHEMBL3792274, “Neuroprotective oleanane triterpenes from the roots of Bupleurum chinense” (Bioorg Med Chem Lett, 2016).

Test [1] deals with SH-SY5Y. Kind of test: Neuroprotective activity against H2O2-induced neuronal cell death in human SH-SY5Y cells assessed as cell viability at 25 uM pretreated for 12 hrs followed by H2O2 addition measured after 3 hrs by MTT assay relative to control. Type of test: functional. To be noted: read-out: Activity.
For a further test, the system named is HepG2. Kind of test: Cytotoxicity against human HepG2 cells after 48 hrs by MTT assay. The note with it: HepG2, 48 h. Type of test: cell-based.
The test system of test [2] is SH-SY5Y. Kind of test: Neuroprotective activity against H2O2-induced neuronal cell death in human SH-SY5Y cells assessed as cell viability at 100 uM pretreated for 12 hrs followed by H2O2 addition measured after 3 hrs by MTT assay relative to control. Type of test: functional. To be noted: read-out: Activity. Background: Formazan colour is commonly taken as a measure of viable cells.

The next test relates to A549. Put plainly: Cytotoxicity against human A549 cells after 48 hrs by MTT assay. Type of test: cell-based. To be noted: A549, 48 h.
The subject of another test is Bcap37. Put plainly: Cytotoxicity against human Bcap37 cells after 48 hrs by MTT assay. It counts as cell-based. The note with it: Bcap37, 48 h.
Test [3] concerns SH-SY5Y. Kind of test: Neuroprotective activity against H2O2-induced neuronal cell death in human SH-SY5Y cells assessed as cell viability at 50 uM pretreated for 12 hrs followed by H2O2 addition measured after 3 hrs by MTT assay relative to control. It counts as functional. To be noted: read-out: Activity.
The nature of test [4]: Cytotoxicity against human Hep3B cells after 48 hrs by MTT assay. It counts as cell-based, Hep 3B2.
In another test the test system is MCF7. Kind of test: Cytotoxicity against human MCF7 cells after 48 hrs by MTT assay. Type of test: cell-based. The note with it: MCF7, 48 h.

Turning to `CO[C@@H]1C=C2[C@@H]3CC(C)(C)CC[C@]3(CO)[C@@H](O)C[C@@]2(C)[C@]2(C)CC[C@H]3[C@](C)(CO)[C@@H](O[C@@H]4O[C@H](C)[C@H](O)[C@H](O[C@@H]5O[C@H](CO)[C@@H](O)[C@H](O)[C@H]5O)[C@H]4O)CC[C@]3(C)[C@@H]12`, the viability at 25 µM in the test on SH-SY5Y [1] worked out at 63.1%. Also, the IC50 – broadly, the concentration at which inhibition is half-maximal – is 27.5 µM in the test on HepG2; over 80 µM in the test on A549; over 80 µM in the test with Bcap37; over 80 µM in test [4]; 64.3 µM in the test on MCF7. In addition, the viability at 100 µM with SH-SY5Y [2] is 6.16%. The viability at 50 µM in the test on SH-SY5Y [3] was 8.25%.
For `CO[C@@H]1C=C2[C@@H]3CC(C)(C)C[C@H](O)[C@]3(CO)[C@@H](O)C[C@@]2(C)[C@]2(C)CC[C@@H]3[C@](C)(CCC(=O)[C@@]3(C)CO)[C@@H]12`, the viability at 25 µM in the test with SH-SY5Y [1] is 75.6%. The half-maximal inhibitory concentration (IC50) in the test on HepG2 was 65.9 µM; in the test on A549, over 80 µM; with Bcap37, over 80 µM; in test [4] it was over 80 µM; in the test with MCF7, over 80 µM. For the same compound, the viability at 100 µM with SH-SY5Y [2] was 67.2%. Further, in the test with SH-SY5Y [3], the viability at 50 µM worked out at 70.2%.
As to `Cc1c(C)c2c(c(C)c1O)CCC(C)(C(=O)O)O2` (stereo unspecified) [TROLOX], the viability at 25 µM in the test on SH-SY5Y [1] is 67%. Further, in the test on SH-SY5Y [2], the viability at 100 µM amounted to 75.2%. Further, the viability at 50 µM in the test with SH-SY5Y [3] was determined as 73.7%.
Consider `CC1(C)CC[C@@]2(CO)C(=C3C=C[C@@H]4[C@@]5(C)CC[C@H](O)[C@@](C)(CO)[C@@H]5CC[C@@]4(C)[C@]3(C)C[C@@H]2O)C1`, for which, in the test with SH-SY5Y [1], the viability at 25 µM turned out to be 81.4%. The IC50 (with HepG2; with A549; in the test with Bcap37; in test [4]; in the test with MCF7) was over 80 µM in each case. The viability at 100 µM in the test on SH-SY5Y [2] came to 78%. In addition, the viability at 50 µM in the test on SH-SY5Y [3] was found to be 79.9%.
Consider `O=c1[nH]cc(F)c(=O)[nH]1` [FLUOROURACIL], for which the IC50 in the test on HepG2 came out at 49.7 µM; with Bcap37, 47.1 µM; in test [4], 10.5 µM; with MCF7, 42.8 µM.
Turning to `CC(=O)O[C@H]1[C@H](O[C@H]2[C@@H](O)[C@@H](C)O[C@@H](O[C@H]3CC[C@@]4(C)[C@@H](CC[C@]5(C)[C@@H]4C=CC4=C6CC(C)(C)CC[C@]6(CO)[C@H](O)C[C@]45C)[C@]3(C)CO)[C@@H]2O)O[C@H](CO)[C@@H](O)[C@@H]1O`, the viability at 25 µM in the test with SH-SY5Y [1] is 9.38%. For the same compound, the IC50 in the test on HepG2 was 18.9 µM; with A549, 56 µM; with Bcap37, 23.5 µM; in test [4], 23 µM; with MCF7, 42.2 µM. Further, the viability at 100 µM in the test with SH-SY5Y [2] came to 7.36%. Besides, in the test on SH-SY5Y [3], the viability at 50 µM was 7.28%.
`C[C@H]1O[C@@H](O[C@H]2CC[C@@]3(C)[C@@H](CC[C@]4(C)[C@@H]3[C@H](O)C=C3[C@@H]5CC(C)(C)CC[C@]5(CO)[C@@H](O)C[C@]34C)[C@]2(C)CO)[C@H](O)[C@@H](O)[C@H]1O`: in the test with SH-SY5Y [1], the viability at 25 µM is 67.6%. Besides, the 50% inhibitory concentration (IC50) in the test on HepG2 was 19.4 µM; in the test with A549, 58.1 µM; with Bcap37 it was 20.2 µM; in test [4], 39.6 µM; with MCF7, 29.4 µM. Further, the viability at 100 µM in the test with SH-SY5Y [2] amounted to 6.3%. For the same compound, the viability at 50 µM in the test on SH-SY5Y [3] came out at 11.4%.
Turning to `CC1(C)CC[C@]23CO[C@@]4(C=C[C@@H]5[C@@]6(C)CC[C@H](O)[C@@](C)(CO)[C@@H]6CC[C@@]5(C)[C@]4(C)C[C@@H]2O)[C@@H]3C1`, the viability at 25 µM in the test with SH-SY5Y [1] is 66.7%. Besides, the IC50 is 75.7 µM with HepG2; over 80 µM in the test on A549; over 80 µM with Bcap37; over 80 µM in test [4]; over 80 µM in the test with MCF7. Besides, in the test with SH-SY5Y [2], the viability at 100 µM was 43.5%. Besides, the viability at 50 µM with SH-SY5Y [3] was found to be 74.2%.
Turning to `CC1(C)CC[C@@]2(CO)C(=C3C=C[C@@H]4[C@@]5(C)CCC(=O)[C@@](C)(CO)[C@@H]5CC[C@@]4(C)[C@]3(C)C[C@H]2O)C1`, the viability at 25 µM in the test on SH-SY5Y [1] was 77.2%. Moreover, the IC50 (in the test with HepG2; with A549; in the test with Bcap37; in test [4]; in the test on MCF7) was over 80 µM each time. Further, the viability at 100 µM with SH-SY5Y [2] came to 75.1%. Besides, the viability at 50 µM in the test on SH-SY5Y [3] came out at 74.1%.
With `CC1(C)CC[C@]2(CO)C(=O)C[C@]3(C)C(=C2C1)C=C[C@@H]1[C@@]2(C)CC[C@H](O)[C@@](C)(CO)[C@@H]2CC[C@]13C`, the viability at 25 µM in the test on SH-SY5Y [1] came to 78.2%. Also, the IC50 (in the test on HepG2; with A549; in the test on Bcap37; in test [4]; with MCF7) was over 80 µM each time. Moreover, the viability at 100 µM in the test with SH-SY5Y [2] amounted to 77.8%. The viability at 50 µM in the test with SH-SY5Y [3] was determined as 80.6%.
Take `CC1(C)CC[C@@]2(CO)C(=C3C=C[C@@H]4[C@@]5(C)CC[C@H](O)[C@@](C)(CO)[C@@H]5CC[C@@]4(C)[C@]3(C)C[C@H]2O)C1`: the viability at 25 µM in the test on SH-SY5Y [1] is 83.4%. Further, the IC50 (in the test on HepG2; in the test with A549; with Bcap37; in test [4]; in the test on MCF7) was over 80 µM throughout. Also, in the test with SH-SY5Y [2], the viability at 100 µM turned out to be 79.3%. For the same compound, the viability at 50 µM in the test with SH-SY5Y [3] was 82.5%.
Take `CO[C@@H]1C=C2[C@@H]3CC(C)(C)CC[C@]3(CO)[C@H](O)C[C@@]2(C)[C@]2(C)CC[C@H]3[C@](C)(CO)[C@@H](O[C@@H]4O[C@H](C)[C@H](O)[C@H](O[C@@H]5O[C@H](COC(C)=O)[C@@H](O)[C@H](O)[C@H]5O)[C@H]4O)CC[C@]3(C)[C@@H]12`: the viability at 25 µM with SH-SY5Y [1] turned out to be 11.7%. Besides, the viability at 100 µM in the test on SH-SY5Y [2] turned out to be 7.16%. For the same compound, in the test on SH-SY5Y [3], the viability at 50 µM amounted to 7.12%.
For the compound `CC(=O)OC[C@H]1O[C@@H](O[C@H]2[C@@H](O)[C@@H](C)O[C@@H](O[C@H]3CC[C@@]4(C)[C@@H](CC[C@]5(C)[C@@H]4C=CC4=C6CC(C)(C)CC[C@]6(CO)[C@H](O)C[C@]45C)[C@]3(C)CO)[C@@H]2O)[C@H](O)[C@@H](O)[C@@H]1O`, the viability at 25 µM with SH-SY5Y [1] was determined as 14.3%. In addition, the IC50 was 21.8 µM with HepG2; 69.3 µM in the test on A549; over 80 µM with Bcap37; over 80 µM in test [4]; 46.5 µM in the test on MCF7. Moreover, the viability at 100 µM in the test with SH-SY5Y [2] amounted to 7.64%. Besides, in the test on SH-SY5Y [3], the viability at 50 µM stood at 7.24%.
On to `CC1(C)CC[C@]23CO[C@@]4(C=C[C@@H]5[C@@]6(C)CC[C@H](O)[C@@](C)(CO)[C@@H]6CC[C@@]5(C)[C@]4(C)C[C@H]2O)[C@@H]3C1`, for which, in the test on SH-SY5Y [1], the viability at 25 µM is 70%. In addition, the IC50 with HepG2 is 63.4 µM; with A549, over 80 µM; in the test on Bcap37, over 80 µM; in test [4] it was over 80 µM; with MCF7, over 80 µM. The viability at 100 µM with SH-SY5Y [2] is 62.6%. Besides, in the test with SH-SY5Y [3], the viability at 50 µM was 62.4%.
In the case of `C[C@H]1O[C@@H](O[C@H]2CC[C@@]3(C)[C@@H](CC[C@]4(C)[C@@H]3[C@H](O)C=C3[C@@H]5CC(C)(C)CC[C@]5(CO)[C@@H](O)C[C@]34C)[C@]2(C)CO)[C@H](O)[C@@H](O[C@@H]2O[C@H](CO)[C@@H](O)[C@H](O)[C@H]2O)[C@H]1O`, in the test on SH-SY5Y [1], the viability at 25 µM came out at 57.5%. The IC50 (with HepG2; in the test on A549; in the test on Bcap37; in test [4]; in the test with MCF7) was over 80 µM throughout. In addition, in the test with SH-SY5Y [2], the viability at 100 µM came out at 55.6%. Besides, in the test on SH-SY5Y [3], the viability at 50 µM came out at 54.4%.
